Patent publication US7807704B2, “Bicyclic, nitrogen-containing compounds modulating CXCR4 and/or CCXCKR2” (Chemocentryx, Inc., priority 2006, dated 2010)

biological target: T1, CXCR4 (Homo sapiens, UniProt P61073); experiment: chemotaxis assay or 125I SDF-1α binding assay for CXCR4; details: first or only activity listed, read-out: CXCR4 activity (IC50 class)
T1 construct: all endogenously expressing CXCR4; endogenous in cells; host or cells: CEM-Nkr, CCRF-CEM, Jurkat, Molt-4; IL-2 stimulated human lymphocytes
Experimental: CEM-Nkr, CCRF-CEM (ATCC #CCL-119), Jurkat (ATCC #TIB-152), Molt-4 (ATCC# CRL-1582), cell lines, all endogenously expressing CXCR4, were used in compound screening and subsequent assays. These cell lines were cultured as a suspension in RPMI-1640 medium supplemented with 2 mM L-glutamine, 1.5 g/L sodium bicarbonate, 4.5 g/L glucose, 10 mM HEPES, 1 mM sodium pyruvate, and 10% FBS. Cells were grown under 5% CO2/95% air, 100% humidity at 37° C. and subcultured twice weekly at 1:6 (cells were cultured at a density range of 1×10^5 to 2×10^6 cells/mL) and harvested at 1×10^6 cells/mL. • b) Isolated Human IL-2 Stimulated Lymphocytes
Cells were centrifuged and resuspended in assay buffer (20 mM HEPES pH 7.1, 140 mM NaCl, 1 mM CaCl2, 5 mM MgCl2, and with 0.2% bovine serum albumin) to a concentration of 4×10^6 cells/mL for cell lines. Binding assays were set up as follows. […] Then 0.1 mL of ^125I labeled SDF-1α (obtained from Perkin Elmer Life Sciences, Boston, Mass.) diluted in assay buffer to a final concentration of ˜50 pM, yielding ˜30,000 cpm per well, was added, the plates sealed and incubated for approximately 3 hours at 4° C. on a shaker platform. Reactions were aspirated onto GF/B glass filters pre-soaked in 0.3% polyethyleneimine (PEI) solution, on a vacuum cell harvester (Packard Instruments; Meriden, Conn.). Scintillation fluid (40 μl; Microscint 20, Packard Instruments) was added to each well, the plates were sealed and radioactivity measured in a Topcount scintillation counter (Packard Instruments). Control wells containing either diluent only (for total counts) or excess SDF1 a (1 μg/mL, for non-specific binding) were used to calculate the percent of total inhibition for compound. The computer program Prism from GraphPad, Inc. (San Diego, Calif.) was used to calculate IC50 values. IC50 values are those concentrations required to reduce the binding of radiolabeled SDF-1α to the receptor by 50%. (For further descriptions of ligand binding and other functional assays, see Dairaghi, et al., J. Biol. Chem. 274:21569-21574 (1999), Penfold, et al., Proc. Natl. Acad. Sci. USA. 96:9839-9844 (1999), and Dairaghi, et al., J. Biol. Chem. 272:28206-28209 (1997)).
Chemotaxis assays were performed using 5 μm pore polycarbonate, polyvinylpyrrolidone-coated filters in 96-well chemotaxis chambers (Neuroprobe; Gaithersburg, Md.) using chemotaxis buffer (Hank's balanced salt solution (HBSS) and 1% FBS). CXCR4 ligand (i.e., SDF1a, R&D Systems; Minneapolis, Minn.) are use to evaluate compound mediated inhibition of CXCR4 mediated migration. Other chemokines (i.e., TECK; R&D Systems; Minneapolis, Minn.) are used as specificity controls. The lower chamber was loaded with 29 μl of chemokine (i.e., 0.1 nM SDF1a); the top chamber contained 50,000 Jurkat cells or IL-2 lymphocytes in 20 μl. The chambers were incubated 2 hours at 37° C., and the number of cells in the lower chamber quantified either by direct cell counts in five high powered fields per well or by the CyQuant assay (Molecular Probes), a fluorescent dye method that measures nucleic acid content and microscopic observation.
To evaluate small organic molecules that prevent the CXCR4 from binding ligand, an assay was employed that detected radioactive ligand (i.e, SDF-1) binding to cells expressing CXCR4 on the cell surface (for example, CEM-Nkr cells). For compounds that inhibited binding, whether competitive or not, fewer radioactive counts are observed when compared to uninhibited controls.
Equal numbers of cells were added to each well in the plate. The cells were then incubated with radiolabeled […]. Unbound ligand was removed by washing the cells, and bound ligand was determined by quantifying radioactive counts. Cells that were incubated without any organic compound gave total counts; non-specific binding was determined by incubating the cells with unlabeled ligand and labeled ligand. Percent inhibition was determined by the equation: […]

T1 sequence (P61073 whole entry): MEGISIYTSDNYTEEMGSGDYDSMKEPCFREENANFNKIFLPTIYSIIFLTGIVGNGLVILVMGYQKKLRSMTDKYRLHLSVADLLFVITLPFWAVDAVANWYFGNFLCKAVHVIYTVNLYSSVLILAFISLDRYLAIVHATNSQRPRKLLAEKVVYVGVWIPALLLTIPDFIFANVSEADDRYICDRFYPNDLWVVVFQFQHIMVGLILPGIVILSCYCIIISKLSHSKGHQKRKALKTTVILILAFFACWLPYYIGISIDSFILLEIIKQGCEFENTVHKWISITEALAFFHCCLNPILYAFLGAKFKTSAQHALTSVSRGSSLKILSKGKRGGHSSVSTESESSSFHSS

Row | IC50 | Structure (SMILES)
1 | 1000 to 10000 nM | CN(CCNC(=O)Cn1nc(Cl)c2ccccc21)C1CCCCC1 [No 21]
2 | 1000 to 10000 nM | Cc1ccc(-c2ccc3ccn(CC(=O)NC(C)(C)CN4CCCC4)c3c2)cc1 [No 15]
3 | < 1000 nM | Cc1ccc(-c2ccc3ccn(CC(=O)NCCN4CCCCC4C)c3c2)cc1 (centres unmarked) [No 53]
4 | < 1000 nM | O=C(Cn1ccc2cccc(-c3ccc(F)cc3)c21)NCCN1CCCC2CCCCC21 (centres unmarked) [No 4]
5 | < 1000 nM | Cc1ccc(-c2ccc3ccn(CC(=O)NCCN4CCCCCC4)c3c2)cc1 [No 54]
6 | < 1000 nM | CN(CCNC(=O)Cn1ccc2ccc(-c3ccc(C(N)=O)cc3)cc21)C1CCCCC1 [No 50]
7 | 1000 to 10000 nM | Cc1ccc(-c2ccc3ccn(CC(=O)NCCNC4CCOC4)c3c2)cc1 (centres unmarked) [No 13]
8 | < 1000 nM | CN(CCNC(=O)Cn1ccc2ccc(-c3ccc(C#N)cc3)cc21)C1CCCCC1 [No 57]
9 | < 1000 nM | Cc1ccc(-c2cccc3c2ccn3CC(=O)NCCN(C)C2CCCCC2)cc1 [No 43]
10 | < 1000 nM | CN(CCNC(=O)Cn1ccc2cc(-c3ccc(F)cc3)ccc21)C1CCCCC1 [No 42]
11 | < 1000 nM | CN(CCNC(=O)Cn1ccc2ccc(-c3ccc(C(F)(F)F)cc3)cc21)C1CCCCC1 [No 25]
12 | < 1000 nM | Cc1ccc(-c2ccc3ccn(CC(=O)NCCN4CCCC(C)(C)C4)c3c2)cc1 [No 63]
13 | < 1000 nM | Cc1ccc(-c2ccc3ccn(CC(=O)NCCN(C)C4CCCC4)c3c2)cc1 [No 51]
14 | < 1000 nM | Cc1ccc(-c2ccc3ccn(CC(=O)NCCN4CCC(C)CC4)c3c2)cc1 [No 56]
15 | < 1000 nM | CCN(CCNC(=O)Cn1ccc2ccc(-c3ccc(C)cc3)cc21)C1CCCCC1 [No 55]
16 | < 1000 nM | Cc1ccc(-c2ccc3ccn(CC(=O)NCCN(C)C4CCCCC4)c3c2)c(F)c1 [No 47]
17 | < 1000 nM | Cc1ccc(-c2ccc3ccn(CC(=O)NCCN4CCCCC4)c3c2)cc1 [No 11]
18 | 1000 to 10000 nM | CN(CCNC(=O)Cc1c[nH]c2ccccc12)C1CCCCC1 [No 20]
19 | < 1000 nM | Cc1ccc(-c2ccc3cnn(CC(=O)NCCN(C)C4CCCCC4)c3c2)cc1 [No 49]
20 | > 10000 nM | CN(CCNC(=O)Cn1ncc2ccccc21)C1CCCCC1 [No 2]
21 | < 1000 nM | Cc1ccc(-c2ccc3c(ccn3CC(=O)NCCN(C)C3CCCCC3)c2)cc1 [No 41]
22 | < 1000 nM | Cc1ccc(-c2ccc3ccn(CC(=O)NCCN(C)C4CCCCC4)c3c2)cc1F [No 48]
23 | < 1000 nM | CN(CCNC(=O)Cn1ccc2ccc(-c3cnc4ccccc4c3)cc21)C1CCCCC1 [No 36]
24 | > 10000 nM | CN(CCNC(=O)Cn1ncc2c1CCCC2)C1CCCCC1 [No 6]
25 | < 1000 nM | CN(CCNC(=O)Cn1cnc2c(F)c(F)ccc21)C1CCCCC1 [No 18]
26 | < 1000 nM | Cc1ccc(-c2ccc3ncn(CC(=O)NCCN(C)C4CCCCC4)c3c2)cc1 [No 60]
27 | < 1000 nM | C=Cc1ccc(-c2ccc3ccn(CC(=O)NCCN(C)C4CCCCC4)c3c2)cc1 [No 45]

Row | IC50 | Structure (SMILES)
28 | < 1000 nM | CN(CCNC(=O)Cn1ccc2ccc(-c3ccc(Cl)cc3)cc21)C1CCCCC1 [No 29]
29 | 1000 to 10000 nM | Cc1ccccc1-c1ccc2ccn(CC(=O)NCCN(C)C3CCCCC3)c2c1 [No 30]
30 | < 1000 nM | Cc1ccc2c(c1)ncn2CC(=O)NCCN(C)C1CCCCC1 [No 9]
31 | < 1000 nM | Cc1ccc(-c2ccc3cc(C(=O)O)n(CC(=O)NCCN(C)C4CCCCC4)c3c2)cc1 [No 14]
32 | < 1000 nM | Cc1ccc(-c2ccc3ccn(CC(=O)NCCN4CC(C)CC(C)C4)c3c2)cc1 (centres unmarked) [No 64]
33 | < 1000 nM | CC(C)c1ccc(-c2ccc3ccn(CC(=O)NCCN4CCCC5CCCCC54)c3c2)cc1 (centres unmarked) [No 3]
34 | < 1000 nM | COc1cc(-c2ccc(C)cc2)cc2c1ccn2CC(=O)NCCN(C)C1CCCCC1 [No 17]
35 | < 1000 nM | COC(=O)c1cc2ccc(-c3ccc(C)cc3)cc2n1CC(=O)NCCN(C)C1CCCCC1 [No 58]
36 | < 1000 nM | Cc1ccc(-c2ccc3ccn(CC(=O)NCCN4CCCC4)c3c2)cc1 [No 52]
37 | < 1000 nM | CCc1ccc(-c2ccc3ccn(CC(=O)NCCN(C)C4CCCCC4)c3c2)cc1 [No 38]
38 | < 1000 nM | Cc1ccc(-c2ccc3oc(=O)n(CC(=O)NCCN(C)C4CCCCC4)c3c2)cc1 [No 12]
39 | < 1000 nM | CN(C)c1ccc(-c2ccc3ccn(CC(=O)NCCN(C)C4CCCCC4)c3c2)cc1 [No 62]
40 | 1000 to 10000 nM | CN(CCNC(=O)Cn1cnc2ncccc21)C1CCCCC1 [No 7]
41 | < 1000 nM | Cc1ccc(-c2ccc3ccn(CC(=O)NCCN(C)C4CCCCC4)c3c2)cc1C [No 46]
42 | 1000 to 10000 nM | CN(CCNC(=O)Cn1cc2ccccc2n1)C1CCCCC1 [No 10]
43 | < 1000 nM | Cc1cccc(-c2ccc3ccn(CC(=O)NCCN(C)C4CCCCC4)c3c2)c1 [No 39]
44 | < 1000 nM | CN(CCNC(=O)Cn1ccc2cccc([N+](=O)[O-])c21)C1CCCCC1 [No 8]
45 | < 1000 nM | CN(CCNC(=O)Cn1ccc2ccc(-c3ccncc3)cc21)C1CCCCC1 [No 40]
46 | < 1000 nM | Cc1ccc(-c2ccc3ccn(CC(=O)NC(C)CN4CCCC4)c3c2)cc1 (centres unmarked) [No 59]
47 | < 1000 nM | Cc1ccc(-c2ccc3ccn(CC(=O)NCC(C)N4CCCC4)c3c2)cc1 (centres unmarked) [No 61]
48 | < 1000 nM | Cc1ccc(-c2ccc3ccn(CC(=O)NCCN4CCC[C@@H]5CCCC[C@H]54)c3c2)cc1 [No 44]
49 | < 1000 nM | CN(CCNC(=O)Cn1ccc2ccc(-c3ccccc3)cc21)C1CCCCC1 [No 22]
50 | 1000 to 10000 nM | Cc1ccc(-c2ccc3c(C4=CCCC=C4)nn(CC(=O)NCCN(C)C4CCCCC4)c3c2)cc1 [No 16]
51 | < 1000 nM | CN(CCCNC(=O)Cn1ccc2cccc(-c3ccc(F)cc3)c21)C1CCCCC1 [No 1]
52 | < 1000 nM | CN(CCNC(=O)Cn1ccc2ccc(-c3cc4ccccc4o3)cc21)C1CCCCC1 [No 37]
53 | > 10000 nM | CN(CCNC(=O)Cn1cnc2c1CCOC2)C1CCCCC1 [No 19]
